Results: US12599642B2, “Compositions derived from Salvia hispanica seeds” (Signum Biosciences, priority 2020, dated 2026)

Key:
Type in all cases: cell-based
M. luteus ATCC ® 4698 ™ = assay: MIC, broth microdilution, M. luteus; settings: ≥85% inhibition of OD
Source text: (§1) Our skin microbiome houses billions of microbes, many of which are commensal and beneficial, however in some instances can trigger harmful skin inflammation. The potential for compounds to promote a healthy skin microbiome by targeting the “bad” bugs and not harming the “good” bugs is an emerging field of study in dermatology. The purpose of this study was to evaluate the antibacterial activity of the Chia seed extract composition of Example 14 compared to control Doxycycline applied in vitro to planktonic bacteria categorized as “good” (M. luteus ATCC® 4698™, S. hominis ATCC® 27847™, S. warneri ATCC® 27836™, S. epidermidis ATCC® 12228™, S. capitis ATCC®27841™, S. simulans ATCC® 27850™) and another six which are categorized as “bad” (S. aureus ATCC™ 29213™, S. aureus MRSA ATCC® 33592™, S. pyogenes ATTC® 19615™, C. acnes ATCC™ 6919™, C. xerosis ATCC® 373™, C. granulosum ATCC® 25564™).
(§2) Test agents and control were stored at recommended storage temperature until use. Minimum Inhibitory Concentrations (MIC) were determined in vitro using the broth microdilution method. […] Antimicrobial activity was defined as the lowest concentration of each test material that inhibited ≥85% of the optical density (OD) measured in broth media. […]

[1] = test system: “good” skin bacteria strains; assay: MIC, broth microdilution, summary over “good” strains; settings: range over the six “good” strains
Source text: as §1, §2

“bad” strains = assay: MIC, broth microdilution, summary over “bad” strains; settings: range over the six “bad” strains
Source text: as §1, §2

S. aureus ATCC ® 29213 ™ = assay: MIC, broth microdilution, S. aureus; settings: ≥85% inhibition of OD
Source text: as §1, §2

[2] = test system: S. aureus MRSA ATCC ® 33591 ™; assay: MIC, broth microdilution, S. aureus MRSA; settings: ≥85% inhibition of OD
[3] = test system: S. simulans ATCC ® 27850 ™; assay: MIC, broth microdilution, S. simulans; settings: ≥85% inhibition of OD
Source text: as §1, §2

[4] = test system: S. warneri ATCC ® 27836 ™; assay: MIC, broth microdilution, S. warneri; settings: ≥85% inhibition of OD
Source text: as §1, §2

[5] = test system: S. hominis ATCC ® 27847 ™; assay: MIC, broth microdilution, S. hominis; settings: ≥85% inhibition of OD
Source text: as §1, §2

[6] = test system: S. epidermidis ATCC ® 12228 ™; assay: MIC, broth microdilution, S. epidermidis; settings: ≥85% inhibition of OD
Source text: as §1, §2

[7] = test system: S. capitis ATCC ® 27841 ™; assay: MIC, broth microdilution, S. capitis; settings: ≥85% inhibition of OD
Source text: as §1, §2

[8] = test system: S. pyogenes ATCC ® 19615 ™; assay: MIC, broth microdilution, S. pyogenes; settings: ≥85% inhibition of OD
Source text: as §1, §2

[9] = test system: C. granulosum ATCC ® 25564 ™; assay: MIC, broth microdilution, C. granulosum; settings: ≥85% inhibition of OD
Source text: as §1, §2

C. acnes ATCC ® 6919 ™ = assay: MIC, broth microdilution, C. acnes; settings: ≥85% inhibition of OD
Source text: as §1, §2

C. xerosis ATCC ® 373 ™ = assay: MIC, broth microdilution, C. xerosis; settings: ≥85% inhibition of OD
Source text: as §1, §2

For Doxycycline hyclate, the MIC (M. luteus ATCC ® 4698 ™) was “(0.00001) % w/v”, the MIC (M. luteus ATCC ® 4698 ™; mean ± StDev of 3 experiments) was 0.10 ± 0.00 µg/mL and the “MIC for “good” strains” value [1] was 0.1 to 10.4 µg/mL. The “MIC for “bad” strains” value (“bad” strains) was 0.1 to 20.8 µg/mL, the MIC (S. aureus ATCC ® 29213 ™) was “(0.00002) % w/v” and the MIC (S. aureus ATCC ® 29213 ™; mean ± StDev of 3 experiments) was 0.20 ± 0.00 µg/mL. For the same substance, the MIC [2] was “(0.0020) % w/v”, the MIC ([2]; mean ± StDev of 3 experiments) was 20.83 ± 7.22 µg/mL and the MIC [3] was “(0.00013) % w/v”. The MIC ([3]; mean ± StDev of 3 experiments) was 1.04 ± 0.45 µg/mL, the MIC [4] was “(0.00003) % w/v” and the MIC ([4]; mean ± StDev of 3 experiments) was 0.31 ± 0.41 µg/mL. The MIC [5] was “(0.0010) % w/v”, the MIC ([5]; mean ± StDev of 3 experiments) was 10.42 ± 3.61 µg/mL and the MIC [6] was “(0.00013) % w/v”. For the same substance, the MIC ([6]; mean ± StDev of 3 experiments) was 1.30 ± 0.45 µg/mL, the MIC [7] was “(0.00007) % w/v” and the MIC ([7]; mean ± StDev of 3 experiments) was 0.65 ± 0.23 µg/mL. The MIC [8] was “(0.00001) % w/v”, the MIC ([8]; mean ± StDev of 3 experiments) was 0.11 ± 0.07 µg/mL and the MIC [9] was “(0.00001) % w/v”. The MIC ([9]; mean ± StDev of 3 experiments) was 0.13 ± 0.06 µg/mL, the MIC (C. acnes ATCC ® 6919 ™) was “(0.00003) % w/v” and the MIC (C. acnes ATCC ® 6919 ™; mean ± StDev of 3 experiments) was 0.26 ± 0.11 µg/mL. The MIC (C. xerosis ATCC ® 373 ™) was “(0.00003) % w/v” and the MIC (C. xerosis ATCC ® 373 ™; mean ± StDev of 3 experiments) was 0.33 ± 0.11 µg/mL.
